From ChEMBL document CHEMBL1129158, “Marine sponge bis(indole) alkaloids that displace ligand binding to 1 adrenergic receptors” (Bioorg Med Chem Lett, 1996)

Assays:
[1] = target: T1, Alpha-1B adrenergic receptor (Homo sapiens, UniProt P35368); experiment: Binding affinity against human Alpha-1b adrenergic receptor
T1 sequence (P35368 whole entry): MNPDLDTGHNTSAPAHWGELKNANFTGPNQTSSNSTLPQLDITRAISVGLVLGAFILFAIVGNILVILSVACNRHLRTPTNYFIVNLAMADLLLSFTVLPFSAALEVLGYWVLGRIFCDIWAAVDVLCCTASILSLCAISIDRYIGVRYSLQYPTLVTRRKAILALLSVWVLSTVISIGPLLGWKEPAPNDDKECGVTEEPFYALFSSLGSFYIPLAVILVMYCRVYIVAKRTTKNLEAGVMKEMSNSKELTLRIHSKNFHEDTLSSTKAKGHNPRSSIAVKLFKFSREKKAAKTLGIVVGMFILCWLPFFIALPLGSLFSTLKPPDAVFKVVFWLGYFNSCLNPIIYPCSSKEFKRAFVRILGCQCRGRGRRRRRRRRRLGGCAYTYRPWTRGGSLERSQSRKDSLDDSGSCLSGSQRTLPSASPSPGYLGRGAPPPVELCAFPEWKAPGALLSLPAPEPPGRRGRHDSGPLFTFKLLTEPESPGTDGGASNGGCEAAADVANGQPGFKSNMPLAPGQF

[2] = target: T2, Alpha-1A adrenergic receptor (Homo sapiens, UniProt P35348); experiment: Compound was tested for its binding affinity towards CHO cells expressing human Alpha-1a adrenergic receptor by displacing [125I]HEAT (2-beta-(4-hydroxyphenyl)-ethylaminomethyltetralone); type: cell-based
T2 sequence (P35348 whole entry): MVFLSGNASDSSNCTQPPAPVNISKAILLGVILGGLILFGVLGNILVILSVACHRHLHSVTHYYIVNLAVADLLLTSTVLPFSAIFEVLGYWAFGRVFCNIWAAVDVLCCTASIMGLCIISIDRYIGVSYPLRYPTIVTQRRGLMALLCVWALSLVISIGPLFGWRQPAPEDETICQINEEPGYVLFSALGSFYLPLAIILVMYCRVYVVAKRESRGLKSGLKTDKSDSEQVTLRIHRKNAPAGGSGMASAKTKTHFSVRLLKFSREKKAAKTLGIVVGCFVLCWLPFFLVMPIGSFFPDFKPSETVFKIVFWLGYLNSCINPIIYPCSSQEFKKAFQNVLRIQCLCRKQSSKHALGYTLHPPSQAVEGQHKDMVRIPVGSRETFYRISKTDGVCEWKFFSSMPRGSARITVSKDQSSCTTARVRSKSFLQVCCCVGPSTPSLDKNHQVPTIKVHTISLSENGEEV

[3] = target: T3, Alpha-1A adrenergic receptor (Rattus norvegicus, UniProt P43140); experiment: Binding affinity was determined against Alpha-1a adrenergic receptor
T3 sequence (P43140 whole entry): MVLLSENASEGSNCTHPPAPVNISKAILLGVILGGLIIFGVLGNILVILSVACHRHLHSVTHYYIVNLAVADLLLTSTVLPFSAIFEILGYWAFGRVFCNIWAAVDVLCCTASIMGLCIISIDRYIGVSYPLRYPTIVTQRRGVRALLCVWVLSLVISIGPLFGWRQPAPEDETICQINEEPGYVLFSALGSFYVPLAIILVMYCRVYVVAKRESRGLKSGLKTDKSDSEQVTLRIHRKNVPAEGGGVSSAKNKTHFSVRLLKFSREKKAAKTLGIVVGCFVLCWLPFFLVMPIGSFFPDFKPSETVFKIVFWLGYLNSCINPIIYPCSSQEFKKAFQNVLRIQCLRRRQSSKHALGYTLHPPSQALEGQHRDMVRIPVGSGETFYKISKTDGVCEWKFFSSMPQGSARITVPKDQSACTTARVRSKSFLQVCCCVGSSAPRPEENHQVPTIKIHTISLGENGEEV

[4] = target: Adrenergic receptors; alpha-1 A & B (Homo sapiens) (UniProt P35348+P35368); experiment: Selectivity is determined from the ratio of binding affinities of alpha 1a adrenoceptor to alpha 1b adrenoceptor; type: protein assay
[5] = target: Alpha-1B adrenergic receptor (Mesocricetus auratus, UniProt P18841); experiment: Compound was tested for its binding affinity towards Rat-1 cells stably expressing hamster alpha-1b adrenergic receptor by displacing [125I]HEAT (2-beta-(4-hydroxyphenyl)-ethylaminomethyltetralone); type: cell-based
Alpha-1B adrenergic receptor (Mesocricetus auratus, UniProt P18841), sequence (P18841 whole entry, looked up): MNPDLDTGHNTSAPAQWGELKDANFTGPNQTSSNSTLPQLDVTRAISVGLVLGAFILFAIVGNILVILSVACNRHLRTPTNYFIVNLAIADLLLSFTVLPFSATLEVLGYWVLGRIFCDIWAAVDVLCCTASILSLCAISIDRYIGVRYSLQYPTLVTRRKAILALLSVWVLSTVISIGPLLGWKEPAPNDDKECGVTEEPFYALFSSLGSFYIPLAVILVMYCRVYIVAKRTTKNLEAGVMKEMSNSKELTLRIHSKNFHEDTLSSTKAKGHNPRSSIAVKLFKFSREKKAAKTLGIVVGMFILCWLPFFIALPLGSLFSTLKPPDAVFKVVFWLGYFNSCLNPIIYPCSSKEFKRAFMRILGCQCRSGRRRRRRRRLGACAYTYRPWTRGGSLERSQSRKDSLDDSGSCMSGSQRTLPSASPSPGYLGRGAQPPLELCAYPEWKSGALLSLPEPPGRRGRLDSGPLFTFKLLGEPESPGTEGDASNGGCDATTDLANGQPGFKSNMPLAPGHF

Ki [1] [nM]	Ki [2] [nM]	Ki [3] [nM]	Selectivity [4]	Ki [5] [nM]	SMILES
78	140	138	1.8	–	CN1C[C@H](c2c[nH]c3c(Br)c(Br)cc(O)c23)NC[C@H]1c1c[nH]c2cc(Br)ccc12
–	12600	–	17	–	O=C(c1nc(-c2c[nH]c3cc(Br)ccc23)c[nH]1)c1c[nH]c2cc(O)ccc12 [BROMOTOPSENTIN]
–	2140	–	4.1	–	Brc1ccc2c(-c3c[nH]c(-c4c[nH]c5cc(Br)ccc45)n3)c[nH]c2c1 [NORTOPSENTIN A]
–	770	–	5.9	–	Brc1ccc2c(-c3nc(-c4c[nH]c5ccccc45)c[nH]3)c[nH]c2c1 [NORTOPSENTIN B]
–	550	–	3.2	–	Brc1ccc2c(-c3c[nH]c(-c4c[nH]c5ccccc45)n3)c[nH]c2c1 [NORTOPSENTIN C]
–	–	–	4.1	4740	O=C(c1nc(-c2c[nH]c3ccccc23)c[nH]1)c1c[nH]c2cc(O)ccc12 [TOPSENTIN]
